Source: patent US10682323B2, “Therapeutic agent for glaucoma” (TOA EIYO LTD., priority 2016, dated 2020)

Tests used:
[1] = as disclosed in Patent Literature 1 (WO 2015/095515 A); cited from earlier work
human sGC = target: T1, human sGC (Homo sapiens, UniProt Q02153); assay: Measurement of sGC activating effect in CHO-K1 cells stably expressing human sGC and mouse CNGA2; format: cell-based; conditions: CHO-K1 cells expressing human sGC and mouse CNGA2, Fura2 calcium readout, 10 μmol/L ODQ in assay buffer
T1 construct: expressed in transfected cells; host or cells: CHO-K1 cells (Chinese hamster ovary), stably co-expressing mouse CNGA2 as the calcium read-out channel
T1 sequence (Q02153 1-619): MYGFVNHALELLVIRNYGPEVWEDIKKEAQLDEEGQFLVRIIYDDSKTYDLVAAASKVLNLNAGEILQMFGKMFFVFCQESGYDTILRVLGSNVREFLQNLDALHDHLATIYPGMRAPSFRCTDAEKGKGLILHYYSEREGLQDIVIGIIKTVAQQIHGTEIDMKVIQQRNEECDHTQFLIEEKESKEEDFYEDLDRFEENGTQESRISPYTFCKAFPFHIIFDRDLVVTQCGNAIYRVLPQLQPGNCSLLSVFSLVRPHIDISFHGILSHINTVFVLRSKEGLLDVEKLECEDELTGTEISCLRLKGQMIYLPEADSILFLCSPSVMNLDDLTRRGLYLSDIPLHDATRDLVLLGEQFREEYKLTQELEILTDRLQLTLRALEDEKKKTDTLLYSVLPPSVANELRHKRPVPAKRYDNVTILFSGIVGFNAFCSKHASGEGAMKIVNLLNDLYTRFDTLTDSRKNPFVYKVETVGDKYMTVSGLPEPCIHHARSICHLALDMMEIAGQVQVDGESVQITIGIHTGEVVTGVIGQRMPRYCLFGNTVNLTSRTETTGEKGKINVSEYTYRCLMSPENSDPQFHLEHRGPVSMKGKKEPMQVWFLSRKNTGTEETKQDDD
T1 sequence (Q02108 1-690 partner): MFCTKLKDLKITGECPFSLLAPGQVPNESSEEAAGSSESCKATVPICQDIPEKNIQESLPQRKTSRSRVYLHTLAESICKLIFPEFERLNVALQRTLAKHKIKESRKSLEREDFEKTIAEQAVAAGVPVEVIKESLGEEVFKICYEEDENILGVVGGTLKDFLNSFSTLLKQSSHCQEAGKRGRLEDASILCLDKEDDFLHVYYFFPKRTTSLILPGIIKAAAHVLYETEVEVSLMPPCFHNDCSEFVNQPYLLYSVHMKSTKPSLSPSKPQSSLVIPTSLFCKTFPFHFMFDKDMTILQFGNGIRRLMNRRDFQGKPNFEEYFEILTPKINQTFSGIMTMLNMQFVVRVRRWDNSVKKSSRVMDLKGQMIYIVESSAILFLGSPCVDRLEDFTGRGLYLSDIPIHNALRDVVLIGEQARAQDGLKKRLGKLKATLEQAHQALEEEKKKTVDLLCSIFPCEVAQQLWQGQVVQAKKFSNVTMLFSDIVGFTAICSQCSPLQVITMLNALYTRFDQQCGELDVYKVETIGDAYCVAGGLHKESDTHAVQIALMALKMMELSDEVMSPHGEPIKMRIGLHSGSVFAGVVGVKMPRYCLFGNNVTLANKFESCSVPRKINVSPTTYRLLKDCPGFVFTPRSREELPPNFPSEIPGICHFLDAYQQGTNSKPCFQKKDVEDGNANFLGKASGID
Method: Chinese Hamster ovary cells (CHO-K1 cells) modified for stably expressing human sGC α subunit and β subunit, and a mouse cyclic nucleotide gated channel (CNGA2) were used in the test.
The CHO-K1 cells stably expressing human sGC and mouse CNGA2 were cultured at 37° C. in a F-12 medium supplemented with 10% (v/v) fetal bovine serum (FBS), penicillin (100 U/mL), streptomycin (100 μg/mL), G418 (250 μg/mL), and Zeocin (250 μg/mL). The cells were suspended in a culture medium, seeded in a 96 well plate, and cultured at 37° C. for 24 hours. The cells were washed with an assay buffer 1 (140 mmol/L of sodium chloride, 5 mmol/L of potassium chloride, 0.5 mmol/L of magnesium chloride, 0.01 mmol/L of calcium chloride, 10 mmol/L of glucose, 0.4 mmol/L of magnesium sulfate, 10 mmol/L of 4-(2-hydroxyethyl)piperazine-1-yl ethanesulfonic acid, 125 μmol/L of sulfinpyrazone, pH 7.4), and then an indicator solution in which Fura2-AM as a fluorescent Ca2+ indicator is dissolved in assay buffer 1 at a concentration of 5 μmol/L was added thereto, and cultured at 37° C. for 60 minutes. The culture medium was removed, the cells were washed with assay buffer 1, the test compound solution was added thereto, and cultured at room temperature for 10 minutes. The plate was mounted on a fluorescence microplate reader (FlexStation II, available from Molecular Devices) with setting of excitation wavelengths of 340 and 380 nm and a detection wavelength of 510 nm, an intracellular calcium concentration was measured as a fluorescent intensity ratio obtained from each excitation wavelength.
In this test, the solution of the test compound was prepared by dissolving each test compound in DMSO at a concentration of 10 mmol/L, and then diluting the solution with assay buffer 2 (140 mmol/L of sodium chloride, 5 mmol/L of potassium chloride, 0.5 mmol/L of magnesium chloride, 1 mmol/L of calcium chloride, 10 mmol/L of glucose, 0.4 mmol/L of magnesium sulfate, 10 mmol/L of 4-(2-hydroxyethyl)piperazine-1-yl ethanesulfonic acid, 125 μmol/L of sulfinpyrazone, 100 μmol/L of isobutylmethylxanthine, 10 μmol/L of 1H-[1,2,4]-oxadiazole [4,3-a]quinoxaline-1-on (hereinafter, referred to as ODQ), pH 7.4), in order to adjust the concentration of 10 μmol/L for testing. As a control solution, a DMSO diluted solution was used, instead of the test compound solution.
The activity of the test compound was calculated as an increase rate (%) of the sGC activity in the test compound solution relative to the sGC activity in the control solution, by dividing a fluorescent intensity ratio in adding the test compound by a fluorescent intensity ratio of the control solution, and subtracting the sGC activity in the control solution (100%) therefrom. An EC50 value was calculated from the activity of the test compound at concentrations of 0.0001, 0.001, 0.003, 0.01, 0.03, 0.1, 1, and 10 μmol/L, using a 4 parameter losgistic model from Assay Explorer (available from Dssault Systèmes BIOVIA).

[2] = Determination of Log D value (flask shaking method); format: physicochemical; conditions: pH 6.8; partition between n-octanol and second solution for the disintegration test (16th revised Japanese Pharmacopoeia), room temperature
Method: More specifically, the Log D is more preferably 1.6 or more and 2.3 or less, still more preferably 1.8 or more and 2.2 or less, and particularly preferably 1.8 or more and 2.1 or less. Here, the Log D value in the present invention is a compound partition coefficient between n-octanol and a second solution of a disintegration test of the 16th revised Japanese Pharmacopoeia.
The Log D value was determined using a flask shaking method, where a test compound partition coefficient between n-octanol and the second solution for the disintegration test defined in the 16th revised Japanese Pharmacopoeia was calculated. Specifically, in a microtube containing 2 mg of the test compound, n-octanol (0.25 mL) and the second solution for the disintegration test (0.25 mL) were mixed. The tube was shaken in a multi shaker at room temperature for 60 minutes, and allowed to stand until the two phases were completely separated. In the microtube, 10 μL of an n-octanol phase was diluted with 190 μL of 85% methanol and mixed, thereby obtaining an organic phase test solution. 100 μL of the second solution phase for the disintegration test was diluted with 100 μL of 50% methanol, and mixed, thereby obtaining an aqueous phase test solution. The organic phase test solution and the aqueous phase test solution were filtered, respectively, and the concentration of the test compound in these test solutions were measured, using high performance liquid chromatography. Then, from the measured concentration and dilution rate, the Log D was calculated.
That is, the Log D of the present specification is represented by the following equation: Log D=Log10([concentration of test compound in organic phase test solution]/[concentration of test compound in aqueous phase test solution])+1 [Equation 1]
The second solution for the disintegration test herein refers to, as defined in the 16th revised Japanese Pharmacopoeia, a liquid obtained by adding to 250 mL of a 0.2 mol/L potassium dihydrogenphosphate reagent, 118 mL of a 0.2 mol/L sodium hydroxide reagent, and water for adjusting to 1000 mL volume.

SMILES	EC50 (human sGC)	logD [2]	intraocular pressure lowering action [1]
O=C(O)CCCCN(CCc1ccccc1OCc1ccc(CCc2ccccc2)cc1)Cc1ccc(C(=O)O)cc1 [Cinaciguat]	–	–	low intraocular pressure lowering action
O=C(O)CCCCN(Cc1ccc(C(=O)O)cc1)C[C@H](OCc1ccc(Oc2ccccc2)cc1)c1cccc(Cl)c1 [Compound No. 23, (−)-4-([N-(4-carboxybutyl)-N-[(2R)-2-(3-chlorophenyl)-2-[4-(phenyloxy)benzyloxy]ethyl]amino]methyl)benzoic acid]	2.47 nM	2.35	–
O=C(O)CCCCN(Cc1ccc(C(=O)O)cc1)C[C@H](OCc1cccc(CCc2ccccc2)c1)c1ccccc1 [Compound No. 11, (−)-4-([N-(4-carboxybutyl)-N-[(2R)-2-[3-(2-phenylethyl)benzyloxy]-2-phenylethyl]amino]methyl)benzoic acid]	1.99 nM	1.94	–
O=C(O)CCCCN(Cc1ccc(C(=O)O)cc1)CC(OCc1ccc(CCc2ccccc2)cc1)c1ccc(F)cc1 (stereo not shown) [Compound No. 13, 4-([N-(4-carboxybutyl)-N-[2-(4-fluorophenyl)-2-[4-(2-phenylethyl)benzyloxy]ethyl]amino]methyl)benzoic acid]	26.5 nM	2.19	–
O=C(O)CCCCN(Cc1ccc(C(=O)O)cc1)C[C@H](OCc1ccc(CCc2ccccc2)cc1F)c1ccccc1 [Compound No. 3, (−)-4-([N-(4-carboxybutyl)-N-[(2R)-2-[2 fluoro-4-(2-phenylethyl)benzyloxy]-2-phenylethyl]amino]methyl)benzoic acid]	2.35 nM	1.99	–

Now from value to compound, other results behind:

EC50 (human sGC)	logD [2]	SMILES	intraocular pressure lowering action [1]
7.09 nM	2.09	CC(C)(C)c1cccc(COc2ccccc2CCN(CCCCC(=O)O)[C@H]2CCCc3cc(C(=O)O)ccc32)c1 [Compound No. 9, (+)-(5S)-5-[N-[2-[2-(3-tert-butylbenzyloxy)phenyl]ethyl]-N-(4-carboxybutyl)amino]-5,6,7,8-tetrahydronaphthalene-2-carboxylic acid]	–
13.4 nM	1.95	CC(C)(C)c1ccccc1COc1ccccc1CCN(CCCCC(=O)O)C1CCCc2cc(C(=O)O)ccc21 (stereo not shown) [Compound No. 15, 5-[N-[2-[2-(2-tert-butylbenzyloxy)phenyl]ethyl]-N-(4-carboxybutyl)amino]-5,6,7,8-tetrahydronaphthalene-2-carboxylic acid]	–
3.96 nM	1.87	O=C(O)CCCCN(CCc1ccccc1OCc1ccc2c(c1)CCCC2)C1CCCc2cc(C(=O)O)ccc21 (stereo not shown) [Compound No. 20, 5-[N-(4-carboxybutyl)-N-[2-[2-(1,2,3,4-tetrahydronaphthalene-6-ylmethoxy)phenyl]ethyl]amino]-5,6,7,8-tetrahydronaphthalene-2-carboxylic acid]	–
15.9 nM	2.06	O=C(O)CCCCN(CCc1ccccc1OCc1ccc(C#CC2CC2)cc1)C1CCCc2cc(C(=O)O)ccc21 (stereo not shown) [Compound No. 21, 5-[N-(4-carboxybutyl)-N-[2-[2-[4-(2-cyclopropylethynyl)benzyloxy]phenyl]ethyl]amino]-5,6,7,8-tetrahydronaphthalene-2-carboxylic acid]	–
1.54 nM	2.14	CC(C)(C)c1cccc(CO[C@@H](CN(CCCCC(=O)O)Cc2ccc(C(=O)O)cc2)c2cccc(Cl)c2)c1 [Compound No. 2, (−)-4-([N-[2-(3-tert-butylbenzyloxy)-(2R)-2-(3-chlorophenyl)ethyl]-N-(4-carboxybutyl)amino]methyl)benzoic acid]	–
